Measurements published in patent US11638424B2, “Mosquito attractant formulations and uses thereof” (priority 2017, dated 2023).

Key:
[1] = test system: RBCs; assay: CO2 production of RBCs (GC-MS and quantitative respirometry, IRGA); format: cell-based, Human; conditions: 10 μM HMBPP, FIG. 2B
Protocol: RBCs (1 ml) were transferred to 4 ml glass vials closed with auto-sampler screw caps, and equilibrated in a thermostat at 38° C. for 15 min. Then, 2.5 μl of HMBPP or Nanopure water were added to the RBCs samples (final concentration: 10 μM HMBPP per sample). Volatiles were collected from the headspace using solid phase micro-extraction (SPME; Supelco, Bellmonte, Pa., USA) (M. J. Yang, el al., J. Chem. Educ., 74, 1130-1132 (1997) and A. K. Borg-Karlson and R. Mozuraitis, Naturforsch., C. 51, 599-602 (1996)). […] Electron ionisation mass spectra were determined at 70 eV with the ion source kept at 230° C. and mass spectra were obtained at mass to charge ratio (m/z) 29-400. […] A similar protocol was used for the quantification of CO2, with the mass spectral data and GC retention times being compared with emission from frozen CO2. The relative amounts of CO2 in arbitrary units were determined from the areas of the respective chromatogram peaks using single ion display mode at m/z 44±0.5 Da. The amounts of identified compounds were quantified by the use of extracted ion chromatograms, since they are very minute. […] The estimations were based on the very same quantifications given in ‘arbitrary area units’. […]

[2] = test system: Plasmodium falciparum (NF54 strain); assay: Mosquito infectious feed (P. falciparum oocyst and sporozoite infection in mosquitoes); format: in vivo
Protocol: A strain of the human malaria parasite P. falciparum, denoted NF54 (T. Ponnudurai, et al., Trop Geogr Med, 33, 50-54 (1981); kindly donated by Klays Berzins, Stockholm University), known to produce gametocytes infectious to mosquitoes (D. Walliker, paper presented at the Symposia on Molecular and Cellular Biology New Series 42, UCLA (1987)), was used for all experimental infections. Parasites were cultured in vitro according to standard protocols (W. Trager and J. B. Jensen, Science, 193, 673-675 (1976)) at 5% haematocrit in complete RPMI-1640 medium with 10% human serum under a gas environment of 1% O2, 3% CO2 and 96% N2 (Labline, Goteborg, Sweden). The culture medium was replaced daily and parasitaemia assessed using Giemsa staining every two days (ibid.). When the parasitaemia reached ˜6% (approximately 2 days after initiating the culture), cultures were diluted with a freshly made 5% haematocrit mixture of RBCs/complete medium. Asexual, synchronised trophozoites were fed to mosquitoes at 5% parasitaemia.
Plasmodium falciparum gametocyte cultures (NF54 strain) were set up at 0.5-0.7% parasitaemia, 6% haematocrit in complete RPMI medium, according to standard procedures (R. Carter, et al. Methods Mol Biol, 21, 67-88 (1993)). For each infectious feeding, a mixture of gametocytes from 14- and 17-day gametocyte cultures were used (ibid.). On the day of experimental infection, uninfected RBCs were supplemented with P. falciparum gametocytes to a final gametocytaemia of approximately 3%, which is known to generate good infection prevalence (>50% in A. gambiae s.s. mosquitoes; ibid.). To measure the effect of HMBPP on parasite infectiousness, two groups of approximately 210 mosquitoes were fed on mature gametocyte-infected red blood cells (giRBCs) with or without HMBPP using a membrane feeder, as previously described (ibid.). Gametocyte density was kept equal in control and treatments. To give the final gametocytaemia of 3% in each tubes, on the day of feed, the final mature gametocytaemia was calculated in cultures and then the volume of gametocyte inoculum was estimated per 1 ml of blood. The gametocyte inoculum was prepared using an equal volume (˜400 μl) of the gametocyte mixture was added to 1 ml of each of the blood treatments (with/without HMBPP). Adding a fixed volume of well-mixed gametocyte culture to a fixed volume of each blood treatment, it was ensured that parasite density (no. gametocytes per ml) was constant in both groups.

## C/C(=C\COP(=O)(O)OP(=O)(O)O)CO [HMBPP, (E)-4-hydroxy-3-methyl-but-2-enyl pyrophosphate]
[1]
  increase of the amount of CO2 released into the gas headspace above hRBC suspensions compared to RBCs alone: 16%
[2]; giRBCs with additional HMBPP, gametocyte density 3%
  oocyst prevalence (proportion of oocyst-carrying mosquitoes): ~100%
[2]; giRBCs with vs without HMBPP
  sporozoite intensity (number of sporozoites per salivary gland): significantly higher
[2]; giRBCs with vs without HMBPP, 10 dpi, FIG. 3D
  oocyst intensity (number of oocyst per midgut): higher
[2]; giRBCs with vs without HMBPP, 14 dpi, FIG. 3E
  sporozoite prevalence (proportion of sporozoite-carrying mosquitoes): significantly higher
[2]; giRBCs with vs without additional HMBPP
  oocyst prevalence, difference between treatments: not significantly different
